Consider twelve compounds from ChEMBL document CHEMBL1828549, “Novel C-4'' modified azithromycin analogs with remarkably enhanced activity against erythromycin-resistant Streptococcus pneumoniae: the synthesis and antimicrobial evaluation” (2011).

≈ marks a conversion by molar mass, not a printed value.

Format in all cases: functional
The test system of assay [1] is Streptococcus pneumoniae. As to the kind of experiment: Antibacterial activity against erythromycin-resistant Streptococcus pneumoniae A22072 expressing mef gene by the broth microdilution method.
Assay [2] relates to Streptococcus pneumoniae. As to the kind of experiment: Antibacterial activity against erythromycin-susceptible Streptococcus pneumoniae ATCC 49619 by the broth microdilution method. In general terms: In broth dilution the organism is exposed to a series of concentrations in liquid medium.
For assay [3], the system named is Staphylococcus aureus. The assay can be described thus: Antibacterial activity against […] Staphylococcus aureus ATCC 29213 by the broth microdilution method.
Assay [4] concerns Streptococcus pneumoniae. The assay can be described thus: Antibacterial activity against erythromycin-resistant Streptococcus pneumoniae B1 expressing erm gene by the broth microdilution method.
Assay [5] deals with Staphylococcus aureus. As to the kind of experiment: Antibacterial activity against penicillin-resistant Staphylococcus aureus by the broth microdilution method.
Assay [6] concerns Staphylococcus aureus. As to the kind of experiment: Antibacterial activity against erythromycin-susceptible Staphylococcus aureus ATCC 25923 by the broth microdilution method.
Assay [7] has as its system Streptococcus pneumoniae. The assay can be described thus: Antibacterial activity against erythromycin-resistant Streptococcus pneumoniae AB11 expressing erm and mef gene by the broth microdilution method.

The term MIC denotes the lowest concentration that inhibits growth of the organism. High values mean a less susceptible organism, low ones a more susceptible organism. With `CC[C@H]1OC(=O)[C@H](C)[C@@H](O[C@H]2C[C@@](C)(OC)[C@@H](OC(=O)NNC(=O)c3ccccc3OC)[C@H](C)O2)[C@H](C)[C@@H](O[C@@H]2O[C@H](C)C[C@H](N(C)C)[C@H]2O)[C@](C)(O)C[C@@H](C)CN(C)[C@H](C)[C@H]2OC(=O)O[C@@]21C`, the minimum inhibitory concentration (MIC) amounted to 0.5 µg/mL (≈ 0.517 µM) with Streptococcus pneumoniae [1]; 1 µg/mL (≈ 1.03 µM) against Streptococcus pneumoniae [2]; 16 µg/mL (≈ 16.5 µM) in the assay with Staphylococcus aureus [3]; 8 µg/mL (≈ 8.27 µM) against Streptococcus pneumoniae [4]; 16 µg/mL (≈ 16.5 µM) with Staphylococcus aureus [5]; 4 µg/mL (≈ 4.14 µM) against Staphylococcus aureus [6]. In the assay on Streptococcus pneumoniae [7], this compound came in with an MIC of 32 µg/mL (≈ 33.1 µM).

`CC[C@H]1OC(=O)[C@H](C)[C@@H](O[C@H]2C[C@@](C)(OC)[C@@H](OC(=O)NNC(=O)c3ccc(OC)c(OC)c3)[C@H](C)O2)[C@H](C)[C@@H](O[C@@H]2O[C@H](C)C[C@H](N(C)C)[C@H]2O)[C@](C)(O)C[C@@H](C)CN(C)[C@H](C)[C@H]2OC(=O)O[C@@]21C`: the MIC against Streptococcus pneumoniae [1] was found to be 0.25 µg/mL (≈ 0.251 µM); against Streptococcus pneumoniae [2], 1 µg/mL (≈ 1 µM); against Staphylococcus aureus [3], 4 µg/mL (≈ 4.01 µM); in the assay with Streptococcus pneumoniae [4], 32 µg/mL (≈ 32.1 µM); in the assay on Staphylococcus aureus [5], 1 µg/mL (≈ 1 µM); against Staphylococcus aureus [6] it was 4 µg/mL (≈ 4.01 µM). The MIC against Streptococcus pneumoniae [7] stood at 64 µg/mL (≈ 64.2 µM).

On to `CC[C@H]1OC(=O)[C@H](C)[C@@H](O[C@H]2C[C@@](C)(OC)[C@@H](OC(=O)NNC(=O)c3ccc(OC)cc3)[C@H](C)O2)[C@H](C)[C@@H](O[C@@H]2O[C@H](C)C[C@H](N(C)C)[C@H]2O)[C@](C)(O)C[C@@H](C)CN(C)[C@H](C)[C@H]2OC(=O)O[C@@]21C`, for which the minimal inhibitory concentration (MIC) is 0.25 µg/mL (≈ 0.258 µM) against Streptococcus pneumoniae [1]; 4 µg/mL (≈ 4.14 µM) against Streptococcus pneumoniae [2]; 32 µg/mL (≈ 33.1 µM) with Staphylococcus aureus [3]; 16 µg/mL (≈ 16.5 µM) against Streptococcus pneumoniae [4]; 8 µg/mL (≈ 8.27 µM) in the assay with Staphylococcus aureus [5]; 2 µg/mL (≈ 2.07 µM) against Staphylococcus aureus [6]. The MIC in the assay with Streptococcus pneumoniae [7] stood at 64 µg/mL (≈ 66.2 µM).

Take `CC[C@H]1OC(=O)[C@H](C)[C@@H](O[C@H]2C[C@@](C)(OC)[C@@H](O)[C@H](C)O2)[C@H](C)[C@@H](O[C@@H]2O[C@H](C)C[C@H](N(C)C)[C@H]2O)[C@](C)(O)C[C@@H](C)CN(C)[C@H](C)[C@@H](O)[C@]1(C)O` [AZITHROMYCIN]: the minimal inhibitory concentration (MIC) is 4 µg/mL (≈ 5.34 µM) against Streptococcus pneumoniae [1]; 0.03 µg/mL (≈ 0.0401 µM) with Streptococcus pneumoniae [2]; 1 µg/mL (≈ 1.34 µM) in the assay on Staphylococcus aureus [3]; 128 µg/mL (≈ 171 µM) against Streptococcus pneumoniae [4]; 0.12 µg/mL (≈ 0.16 µM) in the assay with Staphylococcus aureus [5]; 0.25 µg/mL (≈ 0.334 µM) in the assay with Staphylococcus aureus [6]. This compound had an MIC in the assay with Streptococcus pneumoniae [7] of 256 µg/mL (≈ 342 µM).

Consider `CC[C@H]1OC(=O)[C@H](C)[C@@H](O[C@H]2C[C@@](C)(OC)[C@@H](OC(=O)NCCNC(=O)c3ccc(Br)cc3)[C@H](C)O2)[C@H](C)[C@@H](O[C@@H]2O[C@H](C)C[C@H](N(C)C)[C@H]2O)[C@](C)(O)C[C@@H](C)CN(C)[C@H](C)[C@H]2OC(=O)O[C@@]21C`, for which the MIC against Streptococcus pneumoniae [1] amounted to 0.25 µg/mL (≈ 0.239 µM); against Streptococcus pneumoniae [2], 0.5 µg/mL (≈ 0.479 µM); against Staphylococcus aureus [3], 4 µg/mL (≈ 3.83 µM); in the assay with Streptococcus pneumoniae [4] it was 2 µg/mL (≈ 1.92 µM); in the assay with Staphylococcus aureus [5] it was 2 µg/mL (≈ 1.92 µM); with Staphylococcus aureus [6], 1 µg/mL (≈ 0.958 µM). For the same compound, in the assay on Streptococcus pneumoniae [7], the minimum inhibitory concentration (MIC) was 8 µg/mL (≈ 7.66 µM).

As to `CC[C@H]1OC(=O)[C@H](C)[C@@H](O[C@H]2C[C@@](C)(OC)[C@@H](OC(=O)NCCNC(=O)c3ccc(Cl)cc3)[C@H](C)O2)[C@H](C)[C@@H](O[C@@H]2O[C@H](C)C[C@H](N(C)C)[C@H]2O)[C@](C)(O)C[C@@H](C)CN(C)[C@H](C)[C@H]2OC(=O)O[C@@]21C`, the MIC against Streptococcus pneumoniae [1] was 1 µg/mL (≈ 1 µM); against Streptococcus pneumoniae [2] it was 0.5 µg/mL (≈ 0.5 µM); with Staphylococcus aureus [3] it was 16 µg/mL (≈ 16 µM); in the assay with Streptococcus pneumoniae [4], 8 µg/mL (≈ 8 µM); against Staphylococcus aureus [5], 2 µg/mL (≈ 2 µM); in the assay with Staphylococcus aureus [6], 4 µg/mL (≈ 4 µM). In addition, the MIC against Streptococcus pneumoniae [7] is 32 µg/mL (≈ 32 µM).

`CC[C@H]1OC(=O)[C@H](C)[C@@H](O[C@H]2C[C@@](C)(OC)[C@@H](OC(=O)NCCCCNC(=O)c3ccc(Br)cc3)[C@H](C)O2)[C@H](C)[C@@H](O[C@@H]2O[C@H](C)C[C@H](N(C)C)[C@H]2O)[C@](C)(O)C[C@@H](C)CN(C)[C@H](C)[C@H]2OC(=O)O[C@@]21C`: the MIC in the assay on Streptococcus pneumoniae [1] turned out to be 1 µg/mL (≈ 0.933 µM); in the assay on Streptococcus pneumoniae [2], 1 µg/mL (≈ 0.933 µM); against Staphylococcus aureus [3], 32 µg/mL (≈ 29.8 µM); with Streptococcus pneumoniae [4], 8 µg/mL (≈ 7.46 µM); with Staphylococcus aureus [5], 32 µg/mL (≈ 29.8 µM); in the assay on Staphylococcus aureus [6], 8 µg/mL (≈ 7.46 µM). In addition, the MIC against Streptococcus pneumoniae [7] was determined as 16 µg/mL (≈ 14.9 µM).

In the case of `CC[C@H]1OC(=O)[C@H](C)[C@@H](O[C@H]2C[C@@](C)(OC)[C@@H](OC(=O)NCCNC(=O)c3ccc(OC)c(OC)c3)[C@H](C)O2)[C@H](C)[C@@H](O[C@@H]2O[C@H](C)C[C@H](N(C)C)[C@H]2O)[C@](C)(O)C[C@@H](C)CN(C)[C@H](C)[C@H]2OC(=O)O[C@@]21C`, the MIC in the assay on Streptococcus pneumoniae [1] was determined as 4 µg/mL (≈ 3.9 µM); with Streptococcus pneumoniae [2] it was 2 µg/mL (≈ 1.95 µM); with Staphylococcus aureus [3], 32 µg/mL (≈ 31.2 µM); in the assay on Streptococcus pneumoniae [4] it was 32 µg/mL (≈ 31.2 µM); in the assay on Staphylococcus aureus [5], 8 µg/mL (≈ 7.8 µM); with Staphylococcus aureus [6], 4 µg/mL (≈ 3.9 µM). The minimum inhibitory concentration (MIC) in the assay with Streptococcus pneumoniae [7] was 64 µg/mL (≈ 62.4 µM).

As for `CC[C@H]1OC(=O)[C@H](C)[C@@H](O[C@H]2C[C@@](C)(OC)[C@@H](OC(=O)NCCCCNC(=O)c3ccc(OC)cc3)[C@H](C)O2)[C@H](C)[C@@H](O[C@@H]2O[C@H](C)C[C@H](N(C)C)[C@H]2O)[C@](C)(O)C[C@@H](C)CN(C)[C@H](C)[C@H]2OC(=O)O[C@@]21C`, the minimal inhibitory concentration (MIC) was 0.25 µg/mL (≈ 0.244 µM) against Streptococcus pneumoniae [1]; 1 µg/mL (≈ 0.977 µM) against Streptococcus pneumoniae [2]; 32 µg/mL (≈ 31.3 µM) against Staphylococcus aureus [3]; 4 µg/mL (≈ 3.91 µM) in the assay on Streptococcus pneumoniae [4]; 1 µg/mL (≈ 0.977 µM) in the assay on Staphylococcus aureus [5]; 4 µg/mL (≈ 3.91 µM) against Staphylococcus aureus [6]. The compound also showed a minimum inhibitory concentration (MIC) in the assay with Streptococcus pneumoniae [7] of 16 µg/mL (≈ 15.6 µM).

Turning to `CC[C@H]1OC(=O)[C@H](C)[C@@H](O[C@H]2C[C@@](C)(OC)[C@@H](OC(=O)NNC(=O)c3ccc(Cl)cc3)[C@H](C)O2)[C@H](C)[C@@H](O[C@@H]2O[C@H](C)C[C@H](N(C)C)[C@H]2O)[C@](C)(O)C[C@@H](C)CN(C)[C@H](C)[C@H]2OC(=O)O[C@@]21C`, the minimum inhibitory concentration (MIC) in the assay on Streptococcus pneumoniae [1] stood at 0.25 µg/mL (≈ 0.257 µM); against Streptococcus pneumoniae [2] it was 1 µg/mL (≈ 1.03 µM); in the assay with Staphylococcus aureus [3], 4 µg/mL (≈ 4.12 µM); in the assay on Streptococcus pneumoniae [4], 32 µg/mL (≈ 32.9 µM); against Staphylococcus aureus [5] it was 16 µg/mL (≈ 16.5 µM); with Staphylococcus aureus [6], 2 µg/mL (≈ 2.06 µM). Moreover, the MIC in the assay with Streptococcus pneumoniae [7] stood at 64 µg/mL (≈ 65.9 µM).

As for `CC[C@H]1OC(=O)[C@H](C)[C@@H](O[C@H]2C[C@@](C)(OC)[C@@H](OC(=O)NCCNC(=O)c3ccccc3OC)[C@H](C)O2)[C@H](C)[C@@H](O[C@@H]2O[C@H](C)C[C@H](N(C)C)[C@H]2O)[C@](C)(O)C[C@@H](C)CN(C)[C@H](C)[C@H]2OC(=O)O[C@@]21C`, the MIC was determined as 8 µg/mL (≈ 8.04 µM) against Streptococcus pneumoniae [1]; 0.5 µg/mL (≈ 0.502 µM) with Streptococcus pneumoniae [2]; 8 µg/mL (≈ 8.04 µM) with Staphylococcus aureus [3]; 32 µg/mL (≈ 32.2 µM) with Streptococcus pneumoniae [4]; 64 µg/mL (≈ 64.3 µM) against Staphylococcus aureus [5]; 4 µg/mL (≈ 4.02 µM) against Staphylococcus aureus [6]. Further, the MIC against Streptococcus pneumoniae [7] came out at 64 µg/mL (≈ 64.3 µM).

For `CC[C@H]1OC(=O)[C@H](C)[C@@H](O[C@H]2C[C@@](C)(OC)[C@@H](OC(=O)NCCNC(=O)c3ccc(F)cc3)[C@H](C)O2)[C@H](C)[C@@H](O[C@@H]2O[C@H](C)C[C@H](N(C)C)[C@H]2O)[C@](C)(O)C[C@@H](C)CN(C)[C@H](C)[C@H]2OC(=O)O[C@@]21C`, the MIC in the assay on Streptococcus pneumoniae [1] was determined as 1 µg/mL (≈ 1.02 µM); against Streptococcus pneumoniae [2], 1 µg/mL (≈ 1.02 µM); in the assay on Staphylococcus aureus [3], 16 µg/mL (≈ 16.3 µM); in the assay on Streptococcus pneumoniae [4], 4 µg/mL (≈ 4.07 µM); with Staphylococcus aureus [5] it was 2 µg/mL (≈ 2.03 µM); against Staphylococcus aureus [6] it was 16 µg/mL (≈ 16.3 µM). For the same compound, in the assay on Streptococcus pneumoniae [7], the minimum inhibitory concentration (MIC) stood at 32 µg/mL (≈ 32.5 µM).
